Test results as given in US10472677B2, “Translational dysfunction based therapeutics” (Translational Therapeutics, Inc., priority 2005, dated 2019).

Legend:
[1] = system: cyclin D1 mRNA transport in NIH 3T3 cells; experiment: nucleocytoplasmic mRNA transport, fractionation with Northern / quantitative PCR; assay type: cell-based, mouse
Protocol: Cells were washed twice with PBS and lysed by slow pipetting in 0.14 M NaCl/10 mM Tris.HCl (pH 8.4)/1.5 mM MgCl2/0.5% (vol/vol) Nonidet P-40/1 mM DTT/100 units/ml RNasin (Promega) at 4° C. Lysed suspensions were centrifuged at 1,000×g for 3 min at 4° C., and the supernatant was saved as the cytoplasmic fraction. Nuclear pellets were resuspended in lysis buffer, and 1/10th volume of 3.3% (wt/vol) sodium deoxycholate and 6.6% (vol/vol) Tween 40 was added under slow vortexing, and incubated at 4° C. for 5 min. Nuclei were sedimented by centrifugation at 1,000×g for 3 min at 4° C., and the supernatant (postnuclear fraction) was added to the cytoplasmic fraction. This yielded intact nuclei, as observed by using light microscopy, with no significant cytoplasmic contamination, as evaluated using tRNA^Lys and β-actin contents. Fractionated cytoplasm was free of nuclear contamination, as indicated by absence of U6 snRNA and Sc35.
RNA from whole cells or nuclear and cytoplasmic fractions was extracted by using Trizol according to manufacturer's instructions (GIBCO). Isolated RNAs were treated with RNase-free DNase I (Promega) and 5-1 μg aliquots were resolved on 1% formaldehydeagarose gel and transferred to a positively charged nylon membrane (Roche, Nutley, N.J.). Membranes were prehybridized in ULTRAhyb buffer (Ambion) and probed with 20 μM cyclin D1 cDNA probe, 5 μM β-actin cDNA probe, 30 μM biotinylated tRNA^Lys antisense oligo probe, and 30 μM biotinylated U6 small nuclear RNA antisense oligo probe. cDNA probes were biotinylated by using BrightStar psoralen-biotin and observed by using CDP Star chemiluminescence according to the manufacturer's instructions (Ambion). Band intensity and film response were quantified by using NIH IMAGE.
Cell pellets (500 mg) were homogenized in 1 ml of ice cold lysis buffer (20 mM Hepes/10 mM magnesium acetate/100 mM potassium acetate, pH 7.5) supplemented with protease inhibitors (EDTA-free Complete, Roche) and 400 units/ml of SUPERasine (Ambion), and incubated for 30 min on ice with occasional vortexing. Lysates were sedimented at 3,000×g for 10 min at 4° C. to pellet nuclei and cell debris. Supernatants were sedimented at 12,000×g for 20 min at 4° C. to pellet mitochondria. […] RNA content of fractions was ascertained by using the ratio of absorbance at 260:280 nm. […] RNA from each fraction was quantified by spectrophotometry and 40 ng was converted into cDNA by using the Sensiscript reverse transcription kit (Qiagen, Valencia, Calif.). Quantitative real-time PCR was carried out in triplicate by using the QuantiTect SYBR green real-time PCR Kit (Qiagen) in an Opticon thermal cycler (MJ Research, Waltham, Mass.). […] Obtained real-time PCR profiles were analyzed by using Opticon software (MJ Research).

eIF4E W56A = target: T1, eIF4E W56A (Mus musculus, UniProt P63073, W56A); experiment: tryptophan fluorescence quenching titration, cap-binding site mutant; settings: relative to wild-type eIF4E
T1 construct: made in house
T1 sequence (P63073 whole entry W56A): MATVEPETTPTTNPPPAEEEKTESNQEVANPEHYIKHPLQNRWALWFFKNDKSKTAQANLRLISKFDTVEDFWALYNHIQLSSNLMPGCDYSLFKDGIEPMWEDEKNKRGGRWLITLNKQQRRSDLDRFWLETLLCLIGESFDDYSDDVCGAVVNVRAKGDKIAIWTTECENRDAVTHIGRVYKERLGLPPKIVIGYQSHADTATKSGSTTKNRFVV
Protocol: For fluorescence titrations, mouse eIF4E, which differs from human eIF4E by four nonconserved amino acids, was produced as described. For NMR spectroscopy, mouse eIF4E was expressed as a fusion with the B1 domain of protein G (G4E, kind gift of Gerhard Wagner, Harvard University, Cambridge, Mass.), in BL21 (DE-3) cells by induction with 0.8 mM isopropyl-β-D-thiogalactopyranoside at 18° C. for 20 h in M9 minimal media containing 1 g/l ^15NH4Cl as the sole nitrogen source (Cambridge Isotopes). […] Eluate was dialyzed extensively against 0.1 M NaCl/50 mM Na2PO4 (pH 6.5)/5 mM DTT at 4° C. to produce apo-G4E, as verified by using NMR spectroscopy and fluorescence titrations. […]
Fluorescence measurements were performed by using a home-built fluorimeter, as described. All titrations were performed in 0.3 M NaCl/10 mM Na2PO4 (pH 7.5)/1 μM zinc in 0.3×0.3 cm^2 fluorescence cuvette (Hellma), by using eIF4E concentration of 2 μM. […] Corrected relative fluorescence intensities were normalized, and fluorescence quenching curves were fit to a heuristic single-site-binding expression: I/I0=Kd^n/(x^n+Kd^n) where x is ligand concentration, Kd is the apparent dissociation constant, and n is the Hill coefficient.

Structure (SMILES): NC(=O)c1ncn([C@@H]2O[C@H](CO)[C@@H](O)[C@H]2O)n1 [Ribavirin, 1-β-D-ribofuranosyl-1,2,4-triazole-3-carboxamide]
- nuclear retention of cyclin D1 mRNA ([1]; 0.1 μM, quantitative real-time PCR): 2 fold
- EC50 ([1]; Mus musculus, NIH3T3, NIH 3T3, read-out: apparent EC50 inhibition of nucleocytoplasmic cyclin D1 mRNA transport): ~1000 nM
- concentration of nearly complete nuclear retention of cyclin D1 mRNA ([1]; NIH 3T3): 100 µM
- nucleocytoplasmic transport of B-actin and VEGF mRNAs ([1]; at 100 uM): not affected
- reduction of Ribavirin affinity by W56A mutation (eIF4E W56A): 14 fold
